From ChEMBL document CHEMBL1128911 (Bioorg Med Chem Lett, 1996)

What was measured:
[1] = molecular target: Melatonin receptor; format: protein assay, Ovis aries
[2] = molecular target: T1, Melatonin receptor (Homo sapiens) (UniProt P48039+P49286); experiment: Binding affinity against ovine pars tuberalis melatonin receptor using 2-[125I]- melatonin radioligand binding assay; format: protein assay; details: Ovis aries; target entry is the homologue from another species
[3] = molecular target: T1, Melatonin receptor (Homo sapiens); experiment: Compound was evaluated for agonistic activity against cAMP production stimulated by forskolin; Potential stimulation; format: functional; details: Ovis aries; filed as agonist

| SMILES | Ki [1] | KH [2] | KL [2] | Activity [3] |
| --- | --- | --- | --- | --- |
| CC(=O)NCCc1cccc2ccc3c(c12)C=CCO3 | 0.137 nM |  |  |  |
| CC(=O)NCCc1cccc2ccc3c(c12)CCCO3 | 0.216 nM |  |  |  |
| CC(=O)NCCc1cccc2ccc3c(c12)C(O)CO3 (stereo not given) | 130 nM |  |  |  |
| CC(=O)NCCc1cccc2ccc3c(c12)CC(C)O3 (stereo not given) |  | 0.0069 pM | 1.2 nM |  |
| CC(=O)NCCc1cccc2ccc3c(c12)C(=O)CO3 | 13.9 nM |  |  |  |
| CC(=O)NCCC1CCCc2ccc3c(c21)CCCO3 (stereo not given) | 6.17 nM |  |  | Agonist |
| CC(=O)NCCC1CCCc2cc3c(cc21)OCCO3 (stereo not given) | 62.2 nM |  |  | Agonist |
